Reference: ChEMBL document CHEMBL4184207, “Novel compounds with potent CDK9 inhibitory activity for the treatment of myeloma” (Bioorg Med Chem Lett, 2018)

Key:
[1] = target: T1, Serine/threonine-protein kinase PLK1 (Homo sapiens, UniProt P53350); experiment: Inhibition of human PLK1 kinase domain using 5-TAMRA-RGSFNDTLDFD-NH2 substrate and ATP incubated for 90 mins by fluorescent polarization assay
[2] = target: CDK9/cyclin T1 (Homo sapiens, UniProt P50750); experiment: Inhibition of N-terminal GST-HIS6 fusion protein tagged human full length CDK9 (M1 to F372 residues)/N-terminal GST-HIS6 fusion protein tagged human Cyclin-T1 (M1 to K726 residues) expressed in Sf9 cells at 10 uM using TAMRA-Rbtide substrate and ATP incubated for 1 hr by fluorescent polarization assay
[3] = target: T1, Serine/threonine-protein kinase PLK1; experiment: Inhibition of human PLK1 kinase domain at 10 uM using 5-TAMRA-RGSFNDTLDFD-NH2 substrate and ATP incubated for 90 mins by fluorescent polarization assay
[4] = target: CDK7/Cyclin H/MNAT1 (Homo sapiens) (UniProt P51946+P50613+P51948); experiment: Inhibition of N-terminal GST-HIS6 fusion protein tagged human CDK7 (M1 to F346 residues)/N-terminal HIS6-tagged human Cyclin-H (M1 to L323 residues)/N-terminal HIS6-tagged human MAT1 (M1 to S306 residues) expressed in Sf9 cells at 1 uM using RB-CTF substrate and ATP incubated for 1 hr by fluorescent polarization assay
[5] = target: CDK2/Cyclin A2 (Homo sapiens) (UniProt P24941+P20248); experiment: Inhibition of human full length CDK2 (M1 to L298 residues)/human full length Cyclin-A2 (M1 to L432 residues) expressed in Sf9 cells at 1 uM using TAMRA-histone H1-derived peptide substrate and ATP incubated for 1 hr by fluorescent polarization assay
[6] = test system: RPMI-8226; experiment: Antiproliferative activity against human RPMI8226 cells assessed as inhibition of cell proliferation incubated for 72 hrs by Cell-titer-Glo luminescent cell viability assay; assay type: functional, cell-based; details: RPMI-8226, 72 h

T1 sequence (P53350 whole entry, the tested form may be a part): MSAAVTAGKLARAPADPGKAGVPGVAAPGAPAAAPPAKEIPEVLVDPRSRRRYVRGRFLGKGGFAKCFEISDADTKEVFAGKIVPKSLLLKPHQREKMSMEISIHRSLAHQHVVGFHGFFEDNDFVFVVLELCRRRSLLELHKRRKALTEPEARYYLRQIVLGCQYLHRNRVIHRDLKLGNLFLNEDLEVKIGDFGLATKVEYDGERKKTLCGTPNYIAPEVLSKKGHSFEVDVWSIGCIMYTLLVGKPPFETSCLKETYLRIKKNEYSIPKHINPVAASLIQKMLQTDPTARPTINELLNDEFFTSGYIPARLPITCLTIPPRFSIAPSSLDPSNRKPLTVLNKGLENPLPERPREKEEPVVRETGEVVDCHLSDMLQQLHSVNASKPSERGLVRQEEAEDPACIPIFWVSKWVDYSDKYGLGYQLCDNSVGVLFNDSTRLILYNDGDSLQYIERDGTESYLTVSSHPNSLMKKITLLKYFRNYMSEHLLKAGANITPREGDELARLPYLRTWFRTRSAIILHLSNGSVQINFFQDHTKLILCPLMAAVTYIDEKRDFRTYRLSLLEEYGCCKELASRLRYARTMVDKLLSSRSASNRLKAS
Chain of CDK9/cyclin T1 (O60563 whole entry, the tested form may be a part): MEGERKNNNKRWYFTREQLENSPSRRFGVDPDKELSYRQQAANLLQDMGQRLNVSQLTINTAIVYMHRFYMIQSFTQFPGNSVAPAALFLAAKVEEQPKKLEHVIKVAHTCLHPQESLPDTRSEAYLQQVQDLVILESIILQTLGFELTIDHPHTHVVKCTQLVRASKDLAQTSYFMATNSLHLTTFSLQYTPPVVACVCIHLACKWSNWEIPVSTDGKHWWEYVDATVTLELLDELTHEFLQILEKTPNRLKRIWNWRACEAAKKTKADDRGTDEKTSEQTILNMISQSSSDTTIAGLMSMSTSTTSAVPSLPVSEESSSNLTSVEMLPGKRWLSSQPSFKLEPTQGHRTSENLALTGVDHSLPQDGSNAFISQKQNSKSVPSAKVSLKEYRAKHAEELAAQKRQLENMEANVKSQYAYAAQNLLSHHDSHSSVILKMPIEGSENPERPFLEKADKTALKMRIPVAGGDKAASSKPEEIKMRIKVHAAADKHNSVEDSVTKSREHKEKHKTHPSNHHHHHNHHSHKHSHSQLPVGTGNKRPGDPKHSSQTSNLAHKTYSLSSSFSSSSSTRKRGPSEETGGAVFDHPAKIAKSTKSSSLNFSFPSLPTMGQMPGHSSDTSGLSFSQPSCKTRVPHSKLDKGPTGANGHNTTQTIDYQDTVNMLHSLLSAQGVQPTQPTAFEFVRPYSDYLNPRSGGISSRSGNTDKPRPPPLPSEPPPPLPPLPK
Chain of CDK9/cyclin T1 (P50750 whole entry, the tested form may be a part): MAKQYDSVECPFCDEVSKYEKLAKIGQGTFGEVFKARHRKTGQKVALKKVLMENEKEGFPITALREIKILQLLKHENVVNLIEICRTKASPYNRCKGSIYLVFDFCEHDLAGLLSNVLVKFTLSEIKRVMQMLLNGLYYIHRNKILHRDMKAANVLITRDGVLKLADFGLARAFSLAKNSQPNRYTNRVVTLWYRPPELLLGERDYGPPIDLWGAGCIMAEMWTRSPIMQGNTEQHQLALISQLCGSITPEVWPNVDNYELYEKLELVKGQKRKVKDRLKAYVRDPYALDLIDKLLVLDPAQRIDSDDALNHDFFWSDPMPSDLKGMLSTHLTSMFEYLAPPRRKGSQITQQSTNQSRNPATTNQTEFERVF

IC50 [2] | Structure (SMILES) | other results
2 nM | COc1cc(F)ccc1-c1ccnc(Nc2ccc(S(=O)(=O)Nc3onc(C)c3C)cc2)n1 | IC50 [1]: > 12500 nM; inhibition [3]: 35%; inhibition [4]: 3%; inhibition [5]: 43%
458 nM | Cc1noc(NS(=O)(=O)c2ccc(Nc3nccc(-c4cccc(OC(C)C)c4F)n3)cc2)c1C | inhibition [3]: 65%
11 nM | Cc1noc(NS(=O)(=O)c2ccc(Nc3nccc(-c4ccc(F)cc4F)n3)cc2)c1C | inhibition [3]: 55%
2 nM | COc1cccc(F)c1-c1ccnc(Nc2ccc(S(=O)(=O)Nc3nccs3)cc2)n1 | IC50 [1]: > 12500 nM; inhibition [4]: 0%; inhibition [5]: 46%
3 nM | COc1ccccc1-c1ccnc(Nc2cccc(Cn3cnc4ccccc43)c2)n1 | IC50 [1]: > 12500 nM; inhibition [4]: 0%; inhibition [5]: 9%; IC50 [6]: 1340 nM
33 nM | COc1ccccc1-c1ccnc(Nc2ccc(S(=O)(=O)Nc3nccs3)cc2)n1 | IC50 [6]: 24700 nM
9 nM | COc1ccc(F)cc1-c1ccnc(Nc2ccc(S(=O)(=O)Nc3nnc(C)s3)cc2)n1 | 
6 nM | Cc1cc(F)ccc1-c1ccnc(Nc2ccc(S(=O)(=O)Nc3onc(C)c3C)cc2)n1 | 
210 nM | CCOc1cc(F)ccc1-c1ccnc(Nc2ccc(S(=O)(=O)Nc3nccs3)cc2)n1 | 
14 nM | COc1ccc(-c2ccnc(Nc3ccc(S(=O)(=O)Nc4nnc(C)s4)cc3)n2)c(OC)c1 | 
49 nM | Cc1noc(NS(=O)(=O)c2ccc(Nc3nccc(-c4ccc(F)cc4OC(C)C)n3)cc2)c1C | inhibition [3]: 13%
17 nM | CCOc1cc(Cl)ccc1-c1ccnc(Nc2ccc(S(=O)(=O)Nc3onc(C)c3C)cc2)n1 | inhibition [3]: 5%
21 nM | COc1cc(F)c(-c2ccnc(Nc3ccc(S(=O)(=O)Nc4onc(C)c4C)cc3)n2)c(F)c1 | 
12 nM | COc1ccccc1-c1ccnc(Nc2ccc(S(=O)(=O)Nc3nnc(C)s3)cc2)n1 | 
1580 nM | COc1cc(F)c(Nc2nccc(-c3ccccc3OC)n2)cc1C(N)=O | IC50 [6]: 21500 nM
122 nM | COc1cc(F)ccc1-c1ccnc(Nc2ccc(S(=O)(=O)Nc3nccs3)cc2)n1 | 
378 nM | CCOc1cc(Cl)ccc1-c1ccnc(Nc2ccc(S(=O)(=O)Nc3nccs3)cc2)n1 | 
13 nM | CSc1cc(F)ccc1-c1ccnc(Nc2ccc(S(=O)(=O)Nc3onc(C)c3C)cc2)n1 | 
8 nM | CCOc1cc(F)ccc1-c1ccnc(Nc2ccc(S(=O)(=O)Nc3onc(C)c3C)cc2)n1 | inhibition [3]: 11%
4 nM | COc1cc(F)ccc1-c1ccnc(Nc2cccc(Cn3cnc4ccccc43)c2)n1 | 
> 12500 nM | COc1cc(F)c(Nc2nccc(-c3c(F)cccc3OC)n2)cc1C(N)=O | IC50 [6]: 20500 nM
2 nM | CCOc1cc(F)ccc1-c1ccnc(Nc2ccc(S(=O)(=O)Nc3nnc(C)s3)cc2)n1 | 
8 nM | COc1cc(F)c(F)cc1-c1ccnc(Nc2ccc(S(=O)(=O)Nc3onc(C)c3C)cc2)n1 | inhibition [3]: 37%
2 nM | COc1cccc(F)c1-c1ccnc(Nc2cccc(Cn3cnc4ccccc43)c2)n1 | IC50 [1]: > 12500 nM; inhibition [4]: 0%; inhibition [5]: 44%; IC50 [6]: 1780 nM
> 12500 nM | CCOc1cc(Cl)ccc1-c1ccnc(Nc2cc(C(N)=O)c(OC)cc2F)n1 | 
55 nM | Cc1noc(NS(=O)(=O)c2ccc(Nc3nccc(-c4ccc(F)cc4Cl)n3)cc2)c1C | 

IC50 [2] | Structure (SMILES) | other results
50 nM | Cc1noc(NS(=O)(=O)c2ccc(Nc3nccc(-c4ccc(Cl)cc4Cl)n3)cc2)c1C | 
3 nM | COc1ccccc1-c1ccnc(Nc2ccc(S(=O)(=O)Nc3onc(C)c3C)cc2)n1 | inhibition [3]: 56%; IC50 [6]: 29200 nM
> 12500 nM | COc1cc(F)c(Nc2nccc(-c3ccc(F)cc3OC)n2)cc1C(N)=O | 
> 12500 nM | COc1cc(F)c(Nc2nccc(-c3cc(F)c(F)cc3OC)n2)cc1C(N)=O | 
> 12500 nM | COc1cc(F)c(Nc2nccc(-c3ccc(F)cc3OC(C)C)n2)cc1C(N)=O | 
0.4 nM | COc1ccc(F)c(F)c1-c1ccnc(Nc2ccc(S(=O)(=O)Nc3nnc(C)s3)cc2)n1 | IC50 [1]: > 12500 nM; inhibition [4]: 7%; inhibition [5]: 50%; IC50 [6]: 11700 nM
9 nM | COc1ccc(F)cc1-c1ccnc(Nc2ccc(S(=O)(=O)Nc3onc(C)c3C)cc2)n1 | 
10 nM | COc1cc(F)c(F)cc1-c1ccnc(Nc2ccc(S(=O)(=O)Nc3nnc(C)s3)cc2)n1 | 
66 nM | COc1cc(F)ccc1-c1ccnc(Nc2ccc(C(=O)O)cc2)n1 | 
12 nM | COc1cc(Cl)ccc1-c1ccnc(Nc2ccc(S(=O)(=O)Nc3onc(C)c3C)cc2)n1 | 
40 nM | COc1cc(F)ccc1-c1cc(Nc2ccc(S(=O)(=O)Nc3onc(C)c3C)cc2)ncn1 | 
1 nM | COc1ccc(F)c(F)c1-c1ccnc(Nc2ccc(S(=O)(=O)Nc3onc(C)c3C)cc2)n1 | IC50 [1]: 5910 nM; inhibition [3]: 75%; inhibition [4]: 2%; inhibition [5]: 83%
25 nM | COc1cccc(Cl)c1-c1ccnc(Nc2ccc(S(=O)(=O)Nc3onc(C)c3C)cc2)n1 | 
3 nM | COc1cc(F)ccc1-c1ccnc(Nc2ccc(S(=O)(=O)Nc3noc(C)c3C)cc2)n1 | IC50 [1]: > 12500 nM; inhibition [4]: 0%; inhibition [5]: 0%
9 nM | COc1ccc(-c2ccnc(Nc3ccc(S(=O)(=O)Nc4onc(C)c4C)cc3)n2)c(OC)c1 | inhibition [3]: 34%
1 nM | COc1cccc(F)c1-c1ccnc(Nc2ccc(S(=O)(=O)Nc3onc(C)c3C)cc2)n1 | IC50 [1]: 12400 nM; inhibition [4]: 1%; inhibition [5]: 44%; IC50 [6]: 26600 nM
6 nM | COc1cc(F)ccc1-c1ccnc(Nc2ccc(S(=O)(=O)Nc3nnc(C)s3)cc2)n1 | 
135 nM | COc1cc(F)ccc1-c1ccnc(Nc2ccc(C(=O)Nc3onc(C)c3C)cc2)n1 | 
5 nM | COc1cc(F)ccc1-c1ccnc(Nc2ccc(S(=O)(=O)Nc3noc4ccccc34)cc2)n1 | IC50 [6]: 15500 nM
> 12500 nM | COc1cc(F)ccc1-c1ccnc(Nc2ccc(-c3c(C)noc3C)cc2)n1 | 
2 nM | CCOc1cccc(F)c1-c1ccnc(Nc2ccc(S(=O)(=O)Nc3onc(C)c3C)cc2)n1 | IC50 [1]: > 12500 nM; inhibition [4]: 0%; inhibition [5]: 14%
> 12500 nM | CCOc1cc(F)ccc1-c1ccnc(Nc2cc(C(N)=O)c(OC)cc2F)n1 | 
4 nM | COc1ccccc1-c1ccnc(Nc2ccc(S(=O)(=O)Nc3noc(C)c3C)cc2)n1 | IC50 [6]: 12300 nM
5 nM | CCOc1cc(Cl)ccc1-c1ccnc(Nc2ccc(S(=O)(=O)Nc3nnc(C)s3)cc2)n1 | 
2 nM | COc1cccc(F)c1-c1ccnc(Nc2ccc(S(=O)(=O)Nc3nnc(C)s3)cc2)n1 | IC50 [1]: > 12500 nM; inhibition [4]: 2%; inhibition [5]: 29%
> 12500 nM | COc1cc(F)c(Nc2nccc(-c3ccc(F)cc3F)n2)cc1C(N)=O | 
